The results in this text go back to ChEMBL document CHEMBL1124516, “Synthesis of 2,3-diaziridinyl-1,4-naphthoquinone sulfonate derivatives as potential antineoplastic agents” (1989).

For assay [1], the system named is Mus musculus. As to the kind of experiment: Average change in weight in mice bearing the B16 Melanoma, when compound (20 mg/kg) was administered beginning 24 hr after tumor implantation, daily once for 6 consecutive days. The class given is functional.
For assay [2], the system named is Mus musculus. As to the kind of experiment: Average change in weight in mice bearing the L1210 Leukemia, when compound (10 mg/kg) was administered beginning 24 hr after tumor implantation, daily once for 6 consecutive days. The class given is functional.
Assay [3] deals with Mus musculus. As to the kind of experiment: Average change in weight in mice bearing the L1210 Leukemia, when compound (5 mg/kg) was administered beginning 24 hr after tumor implantation, daily once for 6 consecutive days. The class given is functional.
For assay [4], the system named is Mus musculus. As to the kind of experiment: Average change in weight in mice bearing the L1210 Leukemia, when compound(15 mg/kg) was administered beginning 24 h after tumor implantation, daily once for 6 consecutive days. The format is functional.
Assay [5] concerns Mus musculus. Put plainly: Average change in weight in mice bearing the B16 Melanoma, when compound (15 mg/kg) was administered beginning 24 h after tumor implantation, daily once for 6 consecutive days. The format is functional.
Assay [6] concerns Mus musculus. As to the kind of experiment: Average change in weight in mice bearing the B16 Melanoma, when compound(10 mg/kg) was administered intraperitoneally beginning 24 hr after tumor implantation, daily once for 6 consecutive days. The format is functional.
For assay [7], the system named is Mus musculus. As to the kind of experiment: The ratio of the survival time of treated to control animals x 100 in mice bearing B16 Melanoma, when compound (15 mg/kg) was administered intraperitoneally. The format is functional.
Assay [8] concerns Mus musculus. As to the kind of experiment: The ratio of the survival time of treated to control animals x 100 in mice bearing B16 Melanoma, when compound (20 mg/kg) was administered intraperitoneally. The class given is functional.
In assay [9] the test system is Mus musculus. As to the kind of experiment: The ratio of the survival time of treated to control animals x 100 in mice bearing B16 Melanoma, when compound (5 mg/kg) was administered intraperitoneally. The format is functional.
Assay [10] concerns Mus musculus. Put plainly: The ratio of the survival time of treated to control animals x 100 in mice bearing L1210 Leukemia, when compound (10 mg/kg) was administered intraperitoneally. The class given is functional.
Assay [11] has as its system Mus musculus. As to the kind of experiment: The ratio of the survival time of treated to control animals x 100 in mice bearing L1210 Leukemia, when compound (15 mg/kg) was administered intraperitoneally. The class given is functional.
The subject of assay [12] is Mus musculus. As to the kind of experiment: The ratio of the survival time of treated to control animals x 100 in mice bearing L1210 leukemia, when compound (5 mg/kg) was administered intraperitoneally. The format is functional.
The subject of assay [13] is Mus musculus. Put plainly: Number of mice surviving for a period greater than 50 days when a dose of 30 mg/Kg is administered intraperitoneally; tested in 5 mice. The class given is functional.
Assay [14] concerns Mus musculus. As to the kind of experiment: Number of mice survived for a period greater than 50 days when a dose of 20 mg/Kg is administered intraperitoneally; tested in 5 mice. The class given is functional.
The test system of assay [15] is L1210. Put plainly: Number L1210 (murine leukemia) inoculated mice surviving for >50 days following 25 mg/kg i.p. The format is functional, Mus musculus. Particulars: route intraperitoneal.
The test system of assay [16] is Mus musculus. Put plainly: Average change in weight in mice bearing the L1210 Leukemia, when compound (15 mg/kg) was administered beginning 24 hr after tumor implantation, daily once for 6 consecutive days. The format is functional.
For assay [17], the system named is Mus musculus. Put plainly: Number of mice survived for a period of greater than 50 days when a dose of 5 mg/Kg is administered intraperitoneally; tested in 5 mice. The format is functional.
For assay [18], the system named is Mus musculus. Put plainly: Number of mice survived for a period of greater than 50 days when a dose of 10 mg/Kg is administered intraperitoneally; tested in 5 mice. The format is functional.
The test system of assay [19] is Mus musculus. Put plainly: Number of mice survived for a period of greater than 50 days when a dose of 15 mg/Kg is administered intraperitoneally; tested in 5 mice. The class given is functional.
The test system of assay [20] is Mus musculus. As to the kind of experiment: Average change in weight in mice bearing the B16 Melanoma, when compound(50 mg/kg) was administered intraperitoneally beginning 24 hr after tumor implantation, daily once for 6 consecutive days. The format is functional.
In assay [21] the test system is Mus musculus. As to the kind of experiment: Average change in weight in mice bearing the L1210 Leukemia, when compound (20 mg/kg) was administered once daily beginning 24 hr after tumor implantation, for 6 consecutive days. The format is functional.
For assay [22], the system named is Mus musculus. As to the kind of experiment: Average change in weight in mice bearing the L1210 Leukemia, when compound (25 mg/kg) was administered once daily beginning 24 hr after tumor implantation, for 6 consecutive days. The class given is functional.
Assay [23] concerns Mus musculus. Put plainly: Average change in weight in mice bearing the L1210 Leukemia, when compound(30 mg/kg) was administered once daily beginning 24 hr after tumor implantation, for 6 consecutive days. The class given is functional.
Assay [24] deals with Mus musculus. Put plainly: Average change in weight in mice bearing the B16 Melanoma, when compound(150 mg/kg) was administered beginning 24 hr after tumor implantation, daily once for 6 consecutive days. The format is functional.
The subject of assay [25] is Mus musculus. As to the kind of experiment: Average change in weight in mice bearing the B16 Melanoma, when compound(100 mg/kg) was administered beginning 24 hr after tumor implantation, daily once for 6 consecutive days. The class given is functional.
Assay [26] has as its system Mus musculus. Put plainly: The ratio of the survival time of treated to control animals x 100 in mice bearing B16 Melanoma, when compound (100 mg/kg) was administered intraperitoneally. The format is functional.
Assay [27] has as its system Mus musculus. As to the kind of experiment: The ratio of the survival time of treated to control animals x 100 in mice bearing B16 Melanoma, when compound (150 mg/kg) was administered intraperitoneally. The format is functional.
Assay [28] deals with Mus musculus. As to the kind of experiment: The ratio of the survival time of treated to control animals x 100 in mice bearing B16 Melanoma, when compound (50 mg/kg) was administered intraperitoneally. The format is functional.
Assay [29] concerns L1210. Put plainly: Percentage survival time of L1210 (murine leukemia) inoculated mice following 25 mg/kg i.p. The format is functional, Mus musculus. Particulars: route intraperitoneal.
The test system of assay [30] is L1210. Put plainly: Percentage survival time of L1210 (murine leukemia) inoculated mice following 30 mg/kg i.p. The format is functional, Mus musculus. Particulars: route intraperitoneal.
Assay [31] relates to L1210. As to the kind of experiment: Percentage survival time of L1210 (murine leukemia) inoculated mice following 20 mg/kg i.p. The format is functional, Mus musculus. Particulars: route intraperitoneal.
Assay [32] relates to Mus musculus. As to the kind of experiment: Survival of mice bearing B16 melanoma cells greater than 50 days when treated with a dose of 100 mg/Kg administered intraperitoneally; tested in 5 mice. The format is functional.
Assay [33] relates to Mus musculus. Put plainly: Survival of mice bearing B16 melanoma cells greater than 50 days when treated with a dose of 150 mg/Kg administered intraperitoneally; tested in 5 mice. The class given is functional.
For assay [34], the system named is Mus musculus. As to the kind of experiment: Survival of mice bearing B16 melanoma cells greater than 50 days when treated with a dose of 50 mg/Kg administered intraperitoneally; tested in 5 mice. The class given is functional.
Assay [35] has as its system Mus musculus. As to the kind of experiment: Number of mice survived for a period of greater than 50 days when a dose of 25 mg/Kg is administered intraperitoneally; tested in 4 mice. The class given is functional.

For the molecule `CS(=O)(=O)Oc1cccc2c1C(=O)C(N1CC1)=C(N1CC1)C2=O`, the Average weight in the assay with Mus musculus [1] is listed as -8.1%; in the assay with Mus musculus [2], -7.1%; in the assay on Mus musculus [3] it was 3.3%; in the assay on Mus musculus [4] it was -10%; in the assay with Mus musculus [5] it was -6.4%; with Mus musculus [6], -3.8%. Further, the Activity in the assay on Mus musculus [7] was 137; with Mus musculus [8], 153; in the assay with Mus musculus [9], 125; in the assay with Mus musculus [10] it was 185; with Mus musculus [11], 295; with Mus musculus [12], 130. In addition, the Survivals was found to be 2 with Mus musculus [13], 0 in the assay with Mus musculus [14] and 4 with L1210 [15].

For the molecule `O=C1C(N2CC2)=C(N2CC2)C(=O)c2c(O)cccc21`, the Average weight is -3.2% in the assay on Mus musculus [2], 6.3% in the assay on Mus musculus [3] and -0.8% with Mus musculus [16]. The Activity came out at 96 with Mus musculus [10], 104 in the assay on Mus musculus [11] and 114 with Mus musculus [12]. In addition, the Survivals with Mus musculus [17], with Mus musculus [18] and with Mus musculus [19] was 0 in each case.

As to `COc1ccc(S(=O)(=O)Oc2cccc3c2C(=O)C(N2CC2)=C(N2CC2)C3=O)cc1`, the entries for the “Average body weight change” value with Mus musculus [20] and with Mus musculus [22] were -4.7% and -2.4%, respectively. For the same molecule, the “Average change in body weight” value is on record as -0.1% with Mus musculus [21], -1.3% in the assay with Mus musculus [23], -15.2% in the assay on Mus musculus [24] and -12.4% with Mus musculus [25]. In addition, the Activity in the assay on Mus musculus [26] is recorded as 154; in the assay on Mus musculus [27] it was 165; in the assay with Mus musculus [28], 132; in the assay with L1210 [29] it was 222; in the assay with L1210 [30], 193; in the assay with L1210 [31] it was 175. Further, the Survivals with Mus musculus [32] worked out at 0; with Mus musculus [33] it was 0; with Mus musculus [34], 0; in the assay with Mus musculus [35] it was 1; with Mus musculus [13], 3; in the assay with Mus musculus [14] it was 0.
